From a melting point compilation (Tetko et al.; mined from patent text by program, amines drawn as free bases though some values may be those of a salt)

First: Cc1cccc(C)c1NC(=O)/C=C1\SCC(=O)N1c1ccccc1
Second: Cn1c(=O)c(=NO)nc(-c2ccccc2)c2ccccc21
The melting point of the first is lower: 228 °C for the first, 239 to 242 °C for the second.

Compared with `NC(=S)Nc1cc(-c2ccccc2)nn1-c1ccccc1`, `Nc1ccc2nc(-c3ccccc3)oc2c1` is higher in melting point: 198 to 201 °C for the first, 212 to 214 °C for the second.

First: Cc1cn(C2OC(CO)C(O)C2O)c(=S)[nH]c1=O (stereo not drawn)
Second: O=c1[nH]c(=S)n2c3c1cnn3C(c1ccccc1)=CC2
The melting point of the first is lower: 206 to 208 °C for the first, 289 to 291 °C for the second.

First: CCOc1cccc(-c2cc3n(n2)-c2ccccc2CC3)c1
Second: CCN(CC)C(=O)c1ccc2ccccc2c1-c1cccc(OC)c1
The melting point of the first is higher: 99 to 100 °C for the first, 91 to 93 °C for the second.

First: CCOC(=O)COc1ccc(Cn2c(-c3ccc(Cl)cc3)c(C)c3cc(OCc4ccccc4)ccc32)cc1
Second: CCCCc1nn(-c2cccc(N)c2)c(=O)n1Cc1ccc(-c2ccccc2S(=O)(=O)NC(=O)c2ccccc2Cl)cc1
The melting point of the first is lower: 99 to 101 °C for the first, 137 to 139 °C for the second.

First: Cc1cc(-c2ccc(S(N)(=O)=O)cc2)n(-c2ccc(F)cc2)c1Cl
Second: O=C1NCCN1c1ccc(S(=O)(=O)Nc2ccc3c(c2)CCC3)cc1
The melting point of the first is lower: 119 to 120 °C for the first, 228 to 230 °C for the second.

First: COc1ccc(C[C@@H](NC(=O)CCCc2ccccc2)[C@@H](O)c2ccc(F)cc2)cc1 (racemic)
Second: CCNC(=O)Cc1ccc2ccn(C3CCN(CCc4ccc(F)cc4)CC3)c2c1
The melting point of the first is lower: 130 to 131 °C for the first, 160 °C for the second.

Compared with `C[C@H](C#Cc1ccc(Cc2ccc(Cl)cc2)s1)N(O)C(N)=O`, `NC(=O)N1C(=O)C(C(=O)c2ccc(Cl)s2)c2cc(Cl)ccc21` (stereo not drawn) is higher in melting point: 132 °C for the first, 220 to 222 °C for the second.

First: Cc1c(-c2cccc(C#N)c2F)sc2nc(N)[nH]c(=O)c12
Second: CNC(=O)Cc1c(-c2cc(C)sc2C)nc2sc3ccccc3n12
The melting point of the first is higher: 350 to 370 °C for the first, 238 to 239 °C for the second.

Compared with `O=C(CC1CCCCCC1)Nc1cn(CCO)c2cccc(Cl)c12`, `O=C(Cc1ccccc1C(=O)O)Nc1cccc(/C=C/c2nc(C3CCCCC3)cs2)c1` is higher in melting point: 79 to 83 °C for the first, 210 to 211 °C for the second.

First: N#CC(CO)Cc1cc(O)c(O)c([N+](=O)[O-])c1 (stereo not drawn)
Second: CCOC(=O)Nc1cc(O)c(Cl)cc1F
The melting point of the first is lower: 149 to 152 °C for the first, 152 to 154 °C for the second.

First: COc1cc2c(cc1Nc1ncc(Cl)c(Nc3ccccc3S(=O)(=O)N(C)C)n1)N(CC(=O)N(C)C)C(=O)CN(CC(=O)N(C)C)C2
Second: CCOC(=O)c1cnc2c(SC(=O)N3CCN(c4ccccc4OC)CC3)cccn2c1=O
The melting point of the first is higher: 154 °C for the first, 151 to 153 °C for the second.

First: CC(=O)Oc1cc(OC(C)=O)c2c(c1)Oc1ccccc1C2C#N (stereo not drawn)
Second: O=C(O)C1c2cc(Br)ccc2COc2ccccc21 (stereo not drawn)
The melting point of the first is lower: 160 to 161 °C for the first, 187 to 189 °C for the second.

First: CCCc1c[nH]c(-c2ccc(Cl)cc2)c1-c1ccc(Cl)cc1
Second: CCCC(=O)Oc1c(-c2ccc(-c3ccccc3)cc2)nc2ccccc2c1C(=O)O
The melting point of the first is lower: 90 to 93 °C for the first, 195 to 196 °C for the second.

First: CCCNC(=O)c1ccc(/C=C(\C)c2ccc3c(c2)C(C)(C)CCO3)cc1
Second: CCOC(=O)C=Cc1cc(-c2ccc3c(c2)C(C)(C)CCC3(C)C)cs1
The melting point of the first is higher: 138 to 139 °C for the first, 82 to 84 °C for the second.

First: CC(C)(CC(=O)c1ccc2c(c1)CC(N1C(=O)c3ccccc3C1=O)C2)C(=O)O (stereo not drawn)
Second: COC(=O)c1ccccc1C(=O)n1nc(O)ccc1=O
The melting point of the first is higher: 238 to 240 °C for the first, 144 to 145 °C for the second.

First: O=C(O)Cn1cc(Cc2nc3c(F)c(F)cc(F)c3s2)c2ccccc21
Second: C=C(C)c1cccc2c1nc(-c1c(F)cccc1F)n2Cc1c(F)cccc1F
The melting point of the first is higher: 177 to 178 °C for the first, 156 to 158 °C for the second.

First: O=S(=O)(c1ccccc1F)N1CCCC1c1ccc(F)cc1 (racemic)
Second: CN(CC#Cc1ccccc1)[C@H]1CC[C@H](c2ccc3[nH]c(=O)oc3c2)CC1
The melting point of the first is lower: 91 °C for the first, 249 to 252 °C for the second.

First: CC1(CN2CCC(C(=O)c3ccc(OC(F)(F)F)cc3)CC2)Cn2cc([N+](=O)[O-])nc2O1 (stereo not drawn)
Second: CC(C)(C)C(=O)OCCN1CCN(c2nc(N)ncc2Oc2ccc(Cl)cc2)CC1
The melting point of the first is lower: 113 to 115 °C for the first, 123 to 125 °C for the second.

First: CS(=O)(=O)O[C@@H]([C@H](OS(C)(=O)=O)[C@H](Cc1ccccc1)NC(=O)OCc1ccccc1)[C@H](Cc1ccccc1)NC(=O)OCc1ccccc1
Second: CC(C)C(OC(=O)NC(C)(Cc1ccccc1)C(=O)NC(C)(C)c1ccccc1)c1ccccc1 (stereo not drawn)
The melting point of the first is higher: 153 to 155 °C for the first, 115 to 123 °C for the second.

First: CCN(CC)OP(=O)(Oc1ccccc1)Oc1ccccc1
Second: CCN(CC)C(=O)c1ccc2ccccc2c1-c1ccccc1F
The melting point of the first is lower: 51 to 53 °C for the first, 137 to 140 °C for the second.

First: C=Cn1cc(C(=O)O)c(=O)c2cnc(N3CCN(C)CC3)nc21
Second: CCOC(=O)c1c2n(c3cc(N4CCN(C(C)=O)CC4)c(Cl)cc3c1=O)CS2
The melting point of the first is lower: 233 to 234 °C for the first, 266 to 268 °C for the second.

Compared with `CN1CCN(c2c(F)c(F)c([N+](=O)[O-])c(NC3CC3)c2F)CC1`, `CCNn1c(C)nc(N2CCc3ccccc3CC2)c(C#N)c1=O` is higher in melting point: 75 °C for the first, 172 to 174 °C for the second.

First: N#Cc1c(Cl)c(Cl)n(CC#CI)c1-c1ccc(Cl)c(Cl)c1
Second: CCn1c(Cl)nc2cc(C(F)(F)F)c(Cl)c(N)c21
The melting point of the first is lower: 115 to 116 °C for the first, 134 to 142 °C for the second.

First: COC(=O)c1ccc(CC(=O)Nc2cccc(/C=C/c3nc(C4CCC4)cs3)c2)cc1
Second: COc1c(C=O)ccc(OCC(=O)O)c1Cc1ccc2c(Cl)cccc2c1
The melting point of the first is lower: 163 to 164 °C for the first, 191 to 192 °C for the second.

First: NC(=O)c1cnn2c1NCC=C2c1ccccc1
Second: Cc1nc(C(N)=O)c2n1-c1ccc(Cl)cc1C(c1ccccc1)=NC2
The melting point of the first is lower: 149 to 152 °C for the first, 335 to 340 °C for the second.

First: COC(=O)C1=C(C)NC(c2cnc(Cl)s2)=NC1c1ccc(F)cc1 (stereo not drawn)
Second: O=C(O)CCC(O)c1ccc(-c2ccc(F)cc2Cl)cc1 (stereo not drawn)
The melting point of the first is higher: 175 to 178 °C for the first, 78 to 79 °C for the second.

Compared with `CNC(=O)N(C)C(=O)Nc1ccccn1`, `CCN(C(=O)c1ccccc1[Si](C)(C)C)C(OC)C(C)(C)C` (stereo not drawn) is lower in melting point: 112 to 115 °C for the first, 76 to 78 °C for the second.

First: CCOC(=O)c1cn(-c2nnnn2C)c2nc(Cl)c(F)cc2c1=O
Second: CCOC(=O)c1cc2ccccc2nc1C(Cl)(Cl)Cl
The melting point of the first is higher: 210 to 215 °C for the first, 66 to 75 °C for the second.

Compared with `COc1cc(C)c2c(c1O)CC(C)(c1ccccc1)C2=O` (stereo not drawn), `COc1cc2cc(Cc3ccccc3)c(C)cc2c(C(C)C)c1OC` is higher in melting point: 136 to 139 °C for the first, 159 to 161 °C for the second.

First: CCC(C)c1ccc(-n2c(-c3cc(C)c(OCCO)c(C)c3)nc3ccccc3c2=O)cc1 (stereo not drawn)
Second: Cc1cccc(C(=O)C2=C(O)C(=O)N(c3ccc(C)nn3)C2c2ccc(C(C)C)cc2)c1 (stereo not drawn)
The melting point of the first is lower: 152 to 153 °C for the first, 245 to 250 °C for the second.

Compared with `Clc1ccc(-n2c(Cn3ccnc3)nc3ccccc32)cc1`, `Cc1nc2n(c1CN(C)C)-c1ccc(Cl)cc1C(c1ccccc1Cl)=NC2` is higher in melting point: 121 to 122 °C for the first, 191 to 194 °C for the second.

Compared with `NC(=S)c1c[nH]cc1-c1cccc(Cl)c1Cl`, `Nc1nc(N)c(-c2cccc(Cl)c2Cl)c(C(F)(F)F)n1` is higher in melting point: 128 to 132 °C for the first, 218 to 219 °C for the second.

First: CCSc1nc(=O)n(CC(C)(C)C)c(=O)n1N
Second: CCCc1nn(C)c2c(=O)n(CCCOc3ccc(OC(C)(C)C(=O)O)cc3)c(C)nc12
The melting point of the first is higher: 202 to 204 °C for the first, 158 to 160 °C for the second.

Compared with `COc1ccc(-c2[nH]nc3c2C(=O)c2c(NC(=O)CN)cccc2-3)cc1`, `COc1ccc(NC(=O)c2cc(-c3ccc(F)cc3F)ccc2O)cc1OC` is lower in melting point: over 300 °C for the first, 186 to 187 °C for the second.

First: O=C1OC(COc2ccc(Cl)cc2Cl)OC1c1ccccc1 (stereo not drawn)
Second: NS(=O)(=O)c1cc(C(=O)c2cc3ccccc3o2)ccc1Cl
The melting point of the first is lower: 105 to 107 °C for the first, 167 to 170 °C for the second.

First: NC(=O)CN1C[C@@H]2CCCC[C@@H]2C1=O (relative stereo)
Second: O=C(NCc1cccnc1)c1ccnc(N2CCN(CC3CC3)C2=O)c1
The melting point of the first is higher: 142 to 144 °C for the first, 122 to 123 °C for the second.

Compared with `COc1cc(O)cc(CN2C(=O)N(c3cnn(Cc4c(C)noc4C)c3)C(=O)C2(C)C)c1`, `COC(=O)Nc1cc(C(C)(C)C)cc(NC(=O)Nc2ccc(-c3ccc(CN4CCOCC4)nc3)c3ccccc23)c1OC` is higher in melting point: 72 to 74 °C for the first, 192 to 193 °C for the second.

Compared with `COc1ccc(CCSCC2CCC2)cc1`, `CCC(O)(CC)CC(=NO)C1(c2ccc(Cl)cc2)CCC1` is higher in melting point: 52 °C for the first, 113 to 115 °C for the second.

First: O=c1[nH]nc(Cl)cc1Nc1ccc(-c2ccncc2)nn1
Second: CC(C)n1nc(-c2c(NCCO)nc(N)nc2-c2ccccc2)ccc1=O
The melting point of the first is higher: 263 to 265 °C for the first, 222 to 224 °C for the second.

First: CCCCCCCCCCCCCCOc1ccc(CO)cc1
Second: CCCCCCCCCC=[N+]([O-])CCCCCCCCCC
The melting point of the first is higher: 72 to 74 °C for the first, 63 to 65 °C for the second.

First: CN1CCN(C)CCN2CCOCCOCCN(CC1)CCN(C)CCN(C)CC2
Second: CN1CCCN(C)P1(=O)Cc1ccc(NC(=O)C2=Cc3cc(-c4ccccc4)ccc3CC2)cc1
The melting point of the first is lower: 32 to 33 °C for the first, 249 to 250 °C for the second.

Compared with `CC#CCOc1ccc(SC(C(=O)NO)c2ccc(-c3cccs3)cc2)cc1` (stereo not drawn), `C=C(C)C(=O)OCc1ccc(C#Cc2ccc(OC(=O)C(=C)C)cc2)cc1` is lower in melting point: 182 °C for the first, 65 °C for the second.

First: CC(=O)N1CCc2cc(O)c(C(F)(F)F)cc21
Second: Cc1cc(C(O)(C(F)(F)F)C(F)(F)F)cc(C)c1OCC(N)=O
The melting point of the first is higher: 244 to 247 °C for the first, 180 to 182 °C for the second.

First: Cn1ccnc1CCNS(=O)(=O)c1ccccc1[N+](=O)[O-]
Second: CCOC(c1ccccc1)(c1ccccc1)c1ncn(S(=O)(=O)N(C)C)c1C
The melting point of the first is higher: 193 to 199 °C for the first, 150 °C for the second.

First: C=CCN(c1ccccc1)c1cc(C(N)=O)c(C(=O)O)cc1N(CC=C)c1ccccc1
Second: COc1ccc(CN(C)CCCc2ccc(NC(=O)c3cccc4c(=O)c5cccc(OC)c5[nH]c34)c(C)c2)cc1OC
The melting point of the first is lower: 114 to 116 °C for the first, 154 °C for the second.

First: CC1(C)C=C(c2ccccn2)c2ccc(C#N)cc2OC1
Second: CSc1nn2c(N)cc(C)nc2c1S(=O)(=O)c1cccnc1
The melting point of the first is lower: 132 °C for the first, 227 to 228 °C for the second.

Compared with `CC(C)(COC(=O)c1cc(Cl)c(O)c(Cl)c1)COC(=O)c1cc(Cl)c(O)c(Cl)c1`, `Cc1ccc(OCC2=NCCN2)c(C)c1NS(C)(=O)=O` is higher in melting point: 180 to 181 °C for the first, 216 to 217 °C for the second.

Compared with `CC(C)C(Br)C(=O)NCC(=O)O` (stereo not drawn), `c1ccc(-c2ccc(-n3c4ccccc4c4c3ccc3c5ccccc5n(-c5ccc(-c6ccccc6)cc5)c34)cc2)cc1` is higher in melting point: 138 to 139 °C for the first, 315 °C for the second.
